# Square brackets hold non-standard residues; d marks the D form. Peptide text beside a SMILES is read from it. αMeF = C[C@](N)(Cc1ccccc1)C(=O)O; Aib = CC(C)(N)C(=O)O
# Tested on: male C57BL/6J mouse
# Test: 2-days continuous subcutaneous administration test (feeding suppressive activity)
# Format: in vivo
# Settings: 10 nmol/kg/day, subcutaneous Alzet pump, 2-days cumulative food consumption, control (solvent alone) = 0%
# Experimental: 2-Days Continuous Subcutaneous Administration Test
# The feeding suppressive activity of a test compound was examined by the method described below.
# The test compound was dissolved in a solvent (50% DMSO) so that sustained release would occur at 10 nmol/kg/day, and the solution was filled in the Alzet Pump (DURECT Corporation, model: 1003D). The pump thus filled with the solution to be administered was immersed in physiological saline for priming, and then used. The pump was embedded by the following method. Each male C57BL/6J mouse at 8-9 weeks of age (20-26° C., allowed to take food and water ad libitum; 12-hour bright-12-hour dark cycle) was anesthetized; the skin in the upper back thereof was incised, and the above-mentioned pump was embedded subcutaneously; the incision was sutured. After weighing, this mouse was returned to the rearing cage (reared alone), and given previously weighed food; food consumption as of 2 days after the start of administration was measured. The food consumption was calculated by subtracting the amount of remaining food from the weight of the food given on the day of the start of administration. When the food consumption of a control group receiving administration of the solvent alone was regarded as a suppression rate of 0%, the feeding suppressive activity of each test compound was evaluated on the basis of 2-days cumulative food consumption after the start of administration. The food intake suppression rate (%) of the test compound was defined as (Food consumption of the control group−Food consumption of the test compound-administered group)/Food consumption of the control group×100.
row,SMILES,Food intake suppression (%)
1,CC[C@H](C)[C@H](NC(=O)[C@H](C)NC(=O)[C@H](Cc1ccc(O)cc1)NC(=O)[C@H](CC(=O)O)NC(=O)[C@H](CO)NC(=O)[C@@H](NC(=O)[C@](C)(Cc1ccccc1)NC(=O)[C@@H](NC(=O)CNC(=O)[C@H](CCC(=O)O)NC(=O)C(C)(C)NC(=O)[C@@H](N)Cc1ccc(O)cc1)[C@@H](C)O)[C@@H](C)O)C(=O)NC(C)(C)C(=O)N[C@@H](CC(C)C)C(=O)N[C@@H](CC(=O)O)C(=O)N[C@@H](CCCCN)C(=O)N[C@@H](CCC(N)=O)C(=O)N[C@@H](C)C(=O)N[C@@H](CCC(N)=O)C(=O)N[C@@H](C)C(=O)N[C@@H](CCC(=O)O)C(=O)N[C@@H](Cc1ccccc1)C(=O)N[C@H](C(=O)N[C@@H](CCCCN)C(=O)N[C@@H](Cc1c[nH]c2ccccc12)C(=O)N[C@@H](CC(C)C)C(=O)N[C@@H](CC(C)C)C(=O)N[C@@H](CCCCN)C(=O)NCC(=O)NCC(=O)N1CCC[C@H]1C(=O)N[C@@H](CO)C(=O)N[C@@H](CO)C(=O)NCC(=O)N[C@@H](C)C(=O)N1CCC[C@H]1C(=O)N1CCC[C@H]1C(=O)N1CCC[C@H]1C(=O)N[C@@H](CO)C(=O)N[C@@H](CCCCN)C(N)=O)C(C)C [Example 1] (H-Y[Aib]EGT[αMeF]TSDYAI[Aib]LDKQAQAEFVKWLLKGGPSSGAPPPSK-NH2),42.68%
2,CC[C@H](C)[C@H](NC(=O)[C@H](C)NC(=O)[C@H](Cc1ccc(O)cc1)NC(=O)[C@H](CC(=O)O)NC(=O)[C@H](CO)NC(=O)[C@@H](NC(=O)[C@](C)(Cc1ccccc1)NC(=O)[C@@H](NC(=O)CNC(=O)[C@H](CCC(=O)O)NC(=O)C(C)(C)NC(=O)[C@@H](N)Cc1ccc(O)cc1)[C@@H](C)O)[C@@H](C)O)C(=O)NC(C)(C)C(=O)N[C@@H](CC(C)C)C(=O)N[C@@H](CC(=O)O)C(=O)N[C@@H](CCCCN)C(=O)N[C@@H](CCC(N)=O)C(=O)N[C@@H](C)C(=O)N[C@@H](CCC(N)=O)C(=O)N[C@@H](CO)C(=O)N[C@@H](CCC(=O)O)C(=O)N[C@@H](Cc1ccccc1)C(=O)N[C@H](C(=O)N[C@@H](CCCCN)C(=O)N[C@@H](Cc1c[nH]c2ccccc12)C(=O)N[C@@H](CC(C)C)C(=O)N[C@@H](CC(C)C)C(=O)N[C@@H](CCCCN)C(=O)NCC(=O)NCC(=O)N1CCC[C@H]1C(=O)N[C@@H](CO)C(=O)N[C@@H](CO)C(=O)NCC(=O)N[C@@H](C)C(=O)N1CCC[C@H]1C(=O)N1CCC[C@H]1C(=O)N1CCC[C@H]1C(=O)N[C@@H](CO)C(=O)N[C@@H](CCCCN)C(N)=O)C(C)C [Example 3] (H-Y[Aib]EGT[αMeF]TSDYAI[Aib]LDKQAQSEFVKWLLKGGPSSGAPPPSK-NH2),46.49%
3,CC[C@H](C)[C@H](NC(=O)C(C)(C)NC(=O)[C@H](Cc1ccc(O)cc1)NC(=O)[C@H](CC(=O)O)NC(=O)[C@H](CO)NC(=O)[C@@H](NC(=O)[C@](C)(Cc1ccccc1)NC(=O)[C@@H](NC(=O)CNC(=O)[C@H](CCC(=O)O)NC(=O)C(C)(C)NC(=O)[C@@H](N)Cc1ccc(O)cc1)[C@@H](C)O)[C@@H](C)O)C(=O)NC(C)(C)C(=O)N[C@@H](CC(C)C)C(=O)N[C@@H](CC(=O)O)C(=O)N[C@@H](CCCCN)C(=O)N[C@@H](CCC(N)=O)C(=O)N[C@@H](C)C(=O)N[C@@H](CCC(N)=O)C(=O)N[C@@H](CO)C(=O)N[C@@H](CCC(=O)O)C(=O)N[C@@H](Cc1ccccc1)C(=O)N[C@H](C(=O)N[C@@H](CCCCN)C(=O)N[C@@H](Cc1c[nH]c2ccccc12)C(=O)N[C@@H](CC(C)C)C(=O)N[C@@H](CC(C)C)C(=O)N[C@@H](CCCCN)C(=O)NCC(=O)NCC(=O)N1CCC[C@H]1C(=O)N[C@@H](CO)C(=O)N[C@@H](CO)C(=O)NCC(=O)N[C@@H](C)C(=O)N1CCC[C@H]1C(=O)N1CCC[C@H]1C(=O)N1CCC[C@H]1C(=O)N[C@@H](CO)C(=O)N[C@@H](CCCCN)C(N)=O)C(C)C [Example 4] (H-Y[Aib]EGT[αMeF]TSDY[Aib]I[Aib]LDKQAQSEFVKWLLKGGPSSGAPPPSK-NH2),57.01%
4,CC[C@H](C)[C@H](NC(=O)[C@H](C)NC(=O)[C@H](Cc1ccc(O)cc1)NC(=O)[C@H](CC(=O)O)NC(=O)[C@H](CO)NC(=O)[C@@H](NC(=O)[C@](C)(Cc1ccccc1)NC(=O)[C@@H](NC(=O)CNC(=O)[C@H](CCC(=O)O)NC(=O)C(C)(C)NC(=O)[C@@H](N)Cc1ccc(O)cc1)[C@@H](C)O)[C@@H](C)O)C(=O)NC(C)(C)C(=O)N[C@@H](CC(C)C)C(=O)N[C@@H](CC(=O)O)C(=O)N[C@@H](CCCCN)C(=O)N[C@@H](CCC(N)=O)C(=O)N[C@@H](C)C(=O)N[C@@H](CCC(N)=O)C(=O)N[C@@H](C)C(=O)N[C@@H](CCC(=O)O)C(=O)N[C@@H](Cc1ccccc1)C(=O)N[C@H](C(=O)N[C@@H](CCCCN)C(=O)N[C@@H](Cc1c[nH]c2ccccc12)C(=O)N[C@@H](CC(C)C)C(=O)N[C@@H](CC(C)C)C(=O)N[C@@H](CCCCN)C(=O)NCC(=O)NCC(=O)N1CCC[C@H]1C(=O)N[C@@H](CO)C(=O)N[C@@H](CO)C(=O)NCC(=O)N[C@@H](C)C(=O)N1CCC[C@H]1C(=O)N1CCC[C@H]1C(=O)N1CCC[C@H]1C(=O)N[C@@H](CO)C(N)=O)C(C)C [Example 5] (H-Y[Aib]EGT[αMeF]TSDYAI[Aib]LDKQAQAEFVKWLLKGGPSSGAPPPS-NH2),60.99%
5,CC[C@H](C)[C@H](NC(=O)C(C)(C)NC(=O)[C@H](Cc1ccc(O)cc1)NC(=O)[C@H](CC(=O)O)NC(=O)[C@H](CO)NC(=O)[C@@H](NC(=O)[C@](C)(Cc1ccccc1)NC(=O)[C@@H](NC(=O)CNC(=O)[C@H](CCC(=O)O)NC(=O)C(C)(C)NC(=O)[C@@H](N)Cc1ccc(O)cc1)[C@@H](C)O)[C@@H](C)O)C(=O)NC(C)(C)C(=O)N[C@@H](CC(C)C)C(=O)N[C@@H](CC(=O)O)C(=O)N[C@@H](CCCCN)C(=O)N[C@@H](CCC(N)=O)C(=O)N[C@@H](C)C(=O)N[C@@H](CCC(N)=O)C(=O)N[C@@H](C)C(=O)N[C@@H](CCC(=O)O)C(=O)N[C@@H](Cc1ccccc1)C(=O)N[C@H](C(=O)N[C@@H](CCCCN)C(=O)N[C@@H](Cc1c[nH]c2ccccc12)C(=O)N[C@@H](CC(C)C)C(=O)N[C@@H](CC(C)C)C(=O)N[C@@H](CCCCN)C(=O)NCC(=O)NCC(=O)N1CCC[C@H]1C(=O)N[C@@H](CO)C(=O)N[C@@H](CO)C(=O)NCC(=O)N[C@@H](C)C(=O)N1CCC[C@H]1C(=O)N1CCC[C@H]1C(=O)N1CCC[C@H]1C(=O)N[C@@H](CO)C(N)=O)C(C)C [Example 6] (H-Y[Aib]EGT[αMeF]TSDY[Aib]I[Aib]LDKQAQAEFVKWLLKGGPSSGAPPPS-NH2),65.20%
6,CC[C@H](C)[C@H](NC(=O)C(C)(C)NC(=O)[C@H](Cc1ccc(O)cc1)NC(=O)[C@H](CC(=O)O)NC(=O)[C@H](CO)NC(=O)[C@@H](NC(=O)[C@](C)(Cc1ccccc1)NC(=O)[C@@H](NC(=O)CNC(=O)[C@H](CCC(=O)O)NC(=O)C(C)(C)NC(=O)[C@@H](N)Cc1ccc(O)cc1)[C@@H](C)O)[C@@H](C)O)C(=O)NC(C)(C)C(=O)N[C@@H](CC(C)C)C(=O)N[C@@H](CC(=O)O)C(=O)N[C@@H](CCCCN)C(=O)N[C@@H](CCC(N)=O)C(=O)N[C@@H](C)C(=O)N[C@@H](CCC(N)=O)C(=O)N[C@@H](CO)C(=O)N[C@@H](CCC(=O)O)C(=O)N[C@@H](Cc1ccccc1)C(=O)N[C@H](C(=O)N[C@@H](CCCCN)C(=O)N[C@@H](Cc1c[nH]c2ccccc12)C(=O)N[C@@H](CC(C)C)C(=O)N[C@@H](CC(C)C)C(=O)N[C@@H](CCCCN)C(=O)NCC(=O)NCC(=O)N1CCC[C@H]1C(=O)N[C@@H](CO)C(=O)N[C@@H](CO)C(=O)NCC(=O)N[C@@H](C)C(=O)N1CCC[C@H]1C(=O)N1CCC[C@H]1C(=O)N1CCC[C@H]1C(=O)N[C@@H](CO)C(N)=O)C(C)C [Example 8] (H-Y[Aib]EGT[αMeF]TSDY[Aib]I[Aib]LDKQAQSEFVKWLLKGGPSSGAPPPS-NH2),48.34%
